Test results as given in patent US20110039825A1, “LIGANDS OF ALPHA-ADRENOCEPTORS, DOPAMINE, HISTAMINE, IMIDAZOLINE AND SEROTONIN RECEPTORS AND THEIR USE” (Alla Chem, LLC, priority 2007, published 2011).

Experiments:
[1] = system: male mice of BALB/c line; assay: Passive Avoidance of mice in the Shuttle Chamber, memory disturbed by Scopolamine; assay type: in vivo; details: Scopolamine 0.3 mg/kg
Protocol: A shuttle chamber (Ugo Basile, Italy) consisted of two sections was used. […] The sections were connected through a hole which could be overlapped by a vertical door. The floor was made of transverse metal bars on which DC current impulses could be fed. Experiments were carried out in aged male mice of BALB/c line weighing 20-24 grams.
Each group consisted of at least 8 animals. Animal was placed in light section, and latent period of the first entry into dark chamber was registered. Then the vertical door was closed and the animal was punished by 0.6 mA DC current for 3 seconds. After that it was taken back to its homecage. In 22-24 hours the same animal was placed again in light section of the shuttle chamber and latent period of its first entry into dark section, the total time of its stay in light section, and the number of entries into dark section, were registered. Each monitoring lasted for 5 minutes.
Testing was carried out during the day time in isolated laboratory using white noise at level of about 70 decibel above human hearing threshold.
Scopolamine causes the disturbance of training (memory loss) that results in […].

[2] = molecular target: T1, recombinant human 5-HT6 receptor (Homo sapiens, UniProt P50406); assay: radioligand binding to serotonin receptor 5-HT6 ([3H] Lysergic acid diethylamide); details: 10 μM ligand
T1 construct: expressed in transfected cells; host or cells: HeLa
T1 sequence (P50406 whole entry): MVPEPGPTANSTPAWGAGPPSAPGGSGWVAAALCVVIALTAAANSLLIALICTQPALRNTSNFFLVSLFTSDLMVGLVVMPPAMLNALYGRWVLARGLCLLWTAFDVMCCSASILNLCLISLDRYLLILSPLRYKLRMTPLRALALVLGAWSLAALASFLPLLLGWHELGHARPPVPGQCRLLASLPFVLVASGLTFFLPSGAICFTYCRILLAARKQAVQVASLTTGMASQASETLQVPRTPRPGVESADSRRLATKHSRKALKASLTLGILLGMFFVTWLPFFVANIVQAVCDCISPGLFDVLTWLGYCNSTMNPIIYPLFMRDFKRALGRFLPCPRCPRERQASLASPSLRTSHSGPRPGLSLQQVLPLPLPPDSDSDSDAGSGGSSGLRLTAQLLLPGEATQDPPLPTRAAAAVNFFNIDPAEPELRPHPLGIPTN
From the text: Mol. Pharmacol. 43:320-327, 1993]. […] Methiothepin is used as positive control.

[3] = molecular target: T2, recombinant human 5-HT1A (Homo sapiens, UniProt P08908); assay: radioligand binding to serotonin receptor 5-HT1A ([3H] 8-OH-DPAT); details: 10 μM ligand
T2 construct: expressed in transfected cells; host or cells: CHO
T2 sequence (P08908 1-422): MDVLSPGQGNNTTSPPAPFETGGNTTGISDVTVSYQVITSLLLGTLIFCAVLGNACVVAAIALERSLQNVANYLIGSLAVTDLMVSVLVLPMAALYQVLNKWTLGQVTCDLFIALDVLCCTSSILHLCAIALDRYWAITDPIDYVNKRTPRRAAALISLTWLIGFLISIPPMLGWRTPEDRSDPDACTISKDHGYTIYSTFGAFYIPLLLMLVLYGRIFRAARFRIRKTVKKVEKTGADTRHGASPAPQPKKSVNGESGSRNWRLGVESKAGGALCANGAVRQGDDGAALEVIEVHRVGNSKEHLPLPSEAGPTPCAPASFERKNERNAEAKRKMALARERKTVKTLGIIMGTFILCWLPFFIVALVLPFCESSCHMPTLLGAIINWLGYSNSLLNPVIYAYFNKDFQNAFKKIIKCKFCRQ
From the text: J Pharmacol Exp Ther. 306(1): 301-309, 2003]. […] Metergoline is used as positive control.

| Structure (SMILES) | enhancement of memory disturbed by Scopolamine (passive avoidance) [1] | 5-HT6 % inhibition [2] [%] | 5-HT1A % inhibition [3] [%] |
| --- | --- | --- | --- |
| COc1ccc2c(c1)c1c(n2CCc2ccccn2)CCN(C)C1.Cl.Cl [1.1.2(2-4)•2HCl] | improve memory | – | – |
| Cc1ccc2c(c1)c1c(n2CCc2ccncc2)CCN(C)C1.Cl.Cl [1.1.2(5-2)•2HCl] | improve memory | 91 | 17 |
